Measured values reported in patent US9757477B2, “Imaging brown adipose tissue with curcumin derivatives” (The General Hospital Corporation, priority 2013, dated 2017).
Values joined by “and” are separate entries in the source; they are usually repeats but may differ in a detail not shown here. Equal values may be shown once.

How the values were obtained:
brown adipose cells = test: Ex vivo histology of dissected BAT slices; design: species or system mice; details: fluorescence microscopy
Protocol: Next the time course of CRANAD-2 and CRANAD-3 accumulation in BAT area was investigated. […] Similarly, the signal of CRANAD-3 reached the uptake peak around one hour, and then gradually washed out (FIG. 8c-d). Accumulation of CRANAD-2 and -3 in BAT was further confirmed with ex vivo histology of the dissected BAT slices, performed as follows. The dissected BAT was fixed with 4% formalin at 4° C. overnight, and then embedded into OCT. BAT tissue was cut into 7 micron thickness slices, washed with PBS buffer, and co-stained with DAPI (Vectra Shield, Vector Lab, Burlingame, Calif.). Images were acquired with fast exposure to capture the dye signal in the oil droplets. To outline cell membrane cell autofluorescence was captured with long exposure after image of the dye signal from oil droplets was already acquired. To further validate the capacity of CRANAD-29 for BAT labeling, ex vivo histological microscopic imaging with CRANAD-29 was conducted. […] Gold standard H&E staining also provided similar images (FIG. 10a). […] The injection dose of CRANAD-29 was optimized, and the fluorescence signal reached its plateau at 0.4 mg/kg (FIG. 11). In the following studies, 0.1 mg/kg dose was used.

interscapular BAT = test: Top-down whole-organism NIR fluorescence screening of dyes (ROI1/ROI2 contrast); type: in vivo, nude mice; details: for visible contrast around the interscapular BAT area: in vivo NIR images; for Ratio AVERAGE (mean ratio ROI1/ROI2): i.v., mean of three filter pairs, hit threshold >1.10
Protocol: 38 fluorescent dyes from commercial resources and from the inventors' laboratory were screened. Dyes with excitation range of 550-745 nm, emission range of 600-840 nm, and with molecular weight of less than 700 Da (except Cy5.5) (representative dyes are listed in FIG. 1d and the full list is shown in Table 2). Their hydrophobicities were not determined. The library was screened by intravenous tail injection of compounds into nude mice (10μg/mouse). Each dye was imaged with three optimized excitation/emission filter-pairs, and images at one hour after i.v. injection were acquired.
Top-down whole organism screening was performed as follows. Nude mice (nu/nu COX7) were purchased from Massachusetts General Hospital and Balb/c mice were from Jackson Laboratory. All animal experimental procedures were approved by the Institutional Animal Care and Use Committee (IACUC) at Massachusetts General Hospital. Dye stock solutions were prepared in DMSO. The final injection solution (0.1 mg/ml) was freshly prepared in a mixed solution of 20% DMSO, 20% Cremophor EL and 60% saline. Nude mice (n=5) were injected with a 100 μL dye solution via tail vein. For each imaging session, mice were anesthetized with a mixture of oxygen and isoflurane for 5 minutes, and then positioned into the imaging chamber of IVIS® Spectrum in vivo pre-clinical imaging system. Images were acquired at one-hour post-injection using sequence imaging with three excitation/emission filter pairs for each dye.
Hits selection was performed as follows. Hits from cell- or protein-based screening are usually selected by setting certain threshold. In the case of the top-down imaging screening, two methods were used (threshold and visible contrast) to select hits. First, three images obtained with three excitation/emission pairs were selected for each dye. These ex/em pairs were selected from the closest excitation and emission wavelengths of the tested dyes. For instance, 605/660 nm, 605/680 nm, 640/680 nm were selected for image acquisition of Nile blue (625/660 nm). The quantification of contrast for each image was calculated as a ratio of two ROIs (region of interest). ROI1 reflected the average signal from interscapular BAT and ROI2 was the average signal of the area that included BAT and white adipose tissue (WAT) around the interscapular site (FIG. 1b, left). The averaged fluorescent signal of ROI was used instead of the total signal, because the total signal depends on the area of ROI, whereas the averaged signal reflects the density of signal. The ratio of ROI1/ROI2 could reflect the signal/noise ratio of the tested probe, and could also reflect the selectivity of the probe for BAT over WAT. For each dye, three ROI1/ROI2 ratios obtained with the three filter pairs were calculated. The mean of the ratios was used as the threshold. If the mean ratio was >1.10, the dye was selected as a potential positive hit (FIG. 1c). Since the contrast of a dye in the top-down screening is in the visible range, the visible contrast around the interscapular BAT area was also tested for the hits with the mean ratio of >1.10. If both mean ratio and the visible contrast were positive, then the hit was subjected to re-testing procedure to validate its reliability as described below.
Although CRANAD-2 and CRANAD-3 were able to provide certain contrast for BAT in vivo, their excitation and emission wavelengths were still shorter than required for an ideal NIR imaging probe (both excitation and emission >640 nm). […] To seek better probes, a sub-library was synthesized based on the structures of the lead probes CRANAD-2 and -3. CRANAD-6, -19, -22, -24, -26, -32 and -43 were synthesized and tested (images and chemical structures, excitation and emission spectra are shown in FIG. 9 a-e). […] However, the ROI1/ROI2 ratio of CRANAD-22 was not improved (FIG. 9c).

[1] = Excitation and emission wavelengths of BAT imaging agents; type: physicochemical
Protocol: In some embodiments, the methods include irradiating the mammal with light of the appropriate wavelength to excite the BAT imaging agent, and detecting emissions therefrom.
Fluorescent dyes were purchased from Exciton Inc. (Dayton, Ohio) and Invitrogen. The reagents used for the synthesis were purchased from Aldrich and used without further purification. Column chromatography was performed on silica gel (SiliCycle Inc., 60 Å, […]) slurry packed into glass columns. 1H, 13C NMR spectra were recorded at 500 MHz and 125 MHz respectively, and reported in ppm downfield from tetramethylsilane. Fluorescence studies were carried out using a F-4500 Fluorescence Spectrophotometer (Hitachi). Mass spectra were obtained at Harvard University, Department of Chemistry Instrumentation Facility. Microscopic images were acquired with Nikon Eclipse 50i microscope. In vivo NIR imaging was performed using the IVIS® Spectrum animal imaging system (Caliper LifeSciences, Perkin Elmer, Hopkinton, Mass.), and data analysis was conducted using LivingImage® 4.2.1 software.

[2] = nude mice, one hour post-injection

## CN(C)c1ccc(/C=C/C2=CC(=C/C=C3C=CC(=[N+](C)C)C=C3)/O[B-](F)(F)O2)cc1 [CRANAD-2]
Brown adipose cells
  labeling in ex vivo histology of BAT slices: labeled oil droplets in brown adipose cells
Interscapular BAT
  visible contrast around the interscapular BAT area: best contrast and clear triangular contour
Interscapular BAT; nude mice, 10 μg/mouse i.v., one hour post-injection, first excitation/emission filter pair
  Ratio No 1 (ROI1/ROI2 average fluorescence intensity): 1.31E+00
Interscapular BAT; nude mice, 10 μg/mouse i.v., one hour post-injection, second excitation/emission filter pair
  Ratio No 2 (ROI1/ROI2 average fluorescence intensity): 1.26E+00
Interscapular BAT; nude mice, 10 μg/mouse i.v., one hour post-injection, third excitation/emission filter pair
  Ratio No 3 (ROI1/ROI2 average fluorescence intensity): 1.26E+00
Interscapular BAT; [2]
  Ratio AVERAGE (mean ratio ROI1/ROI2): 1.28 and 1.28E+00
[1]
  Emission λ: 680 nm
  Excitation λ: 605 nm

## F[B-]1(F)OC(/C=C/c2cc3c4c(c2)CCCN4CCC3)=CC(/C=C/c2cc3c4c(c2)CCCN4CCC3)=[O+]1 [CRANAD-29]
Brown adipose cells
  labeling in ex vivo histology of BAT slices: capable of labeling BAT cells
Interscapular BAT
  visible contrast around the interscapular BAT area: excellent contrast and a very clear contour of BAT
Interscapular BAT; [2]
  Ratio AVERAGE (mean ratio ROI1/ROI2): 1.36
[1]
  Emission λ: 700 nm
  Excitation λ: 640 nm
